Patent publication US9730940B2, “Purine inhibitors of human phosphatidylinositol 3-kinase delta” (priority 2012, dated 2017)

Each compound was assayed against PI3K-alpha (Homo sapiens (Human), UniProt P42336) (assay: HTRF PI3K biochemical assay, alpha isoform). Settings: ratio PI3K-alpha IC50 value/PI3K-delta IC50 value.
Chain of PI3K-alpha (P42336 whole entry, looked up, canonical isoform): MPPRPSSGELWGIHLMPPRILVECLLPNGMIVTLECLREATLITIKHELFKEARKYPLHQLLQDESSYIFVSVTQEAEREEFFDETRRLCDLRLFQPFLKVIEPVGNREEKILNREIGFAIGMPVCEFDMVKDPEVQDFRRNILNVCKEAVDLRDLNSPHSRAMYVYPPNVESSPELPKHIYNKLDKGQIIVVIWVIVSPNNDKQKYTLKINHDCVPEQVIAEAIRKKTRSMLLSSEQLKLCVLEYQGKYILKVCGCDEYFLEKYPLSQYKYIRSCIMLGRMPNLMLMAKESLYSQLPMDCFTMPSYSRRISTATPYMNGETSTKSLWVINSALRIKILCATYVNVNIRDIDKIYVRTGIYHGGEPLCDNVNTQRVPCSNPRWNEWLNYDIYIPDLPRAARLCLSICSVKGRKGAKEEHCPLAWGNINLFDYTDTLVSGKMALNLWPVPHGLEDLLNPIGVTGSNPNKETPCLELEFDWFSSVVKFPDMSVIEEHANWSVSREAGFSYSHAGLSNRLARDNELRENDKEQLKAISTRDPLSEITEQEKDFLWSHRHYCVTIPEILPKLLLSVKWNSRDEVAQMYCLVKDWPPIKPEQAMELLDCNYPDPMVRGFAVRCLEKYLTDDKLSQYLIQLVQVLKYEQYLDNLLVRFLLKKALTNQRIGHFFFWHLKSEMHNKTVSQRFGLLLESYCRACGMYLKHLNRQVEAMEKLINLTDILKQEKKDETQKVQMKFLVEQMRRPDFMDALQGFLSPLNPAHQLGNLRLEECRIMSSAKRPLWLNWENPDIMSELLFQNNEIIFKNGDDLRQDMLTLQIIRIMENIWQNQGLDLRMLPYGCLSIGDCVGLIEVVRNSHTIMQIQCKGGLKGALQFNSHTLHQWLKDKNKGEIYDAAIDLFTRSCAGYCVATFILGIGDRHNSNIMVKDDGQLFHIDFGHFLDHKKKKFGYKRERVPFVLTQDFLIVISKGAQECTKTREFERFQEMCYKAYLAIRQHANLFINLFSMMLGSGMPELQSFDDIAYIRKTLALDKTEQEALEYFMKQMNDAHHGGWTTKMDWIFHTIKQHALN
Chain of PI3K-alpha (P27986 whole entry partner, looked up, canonical isoform): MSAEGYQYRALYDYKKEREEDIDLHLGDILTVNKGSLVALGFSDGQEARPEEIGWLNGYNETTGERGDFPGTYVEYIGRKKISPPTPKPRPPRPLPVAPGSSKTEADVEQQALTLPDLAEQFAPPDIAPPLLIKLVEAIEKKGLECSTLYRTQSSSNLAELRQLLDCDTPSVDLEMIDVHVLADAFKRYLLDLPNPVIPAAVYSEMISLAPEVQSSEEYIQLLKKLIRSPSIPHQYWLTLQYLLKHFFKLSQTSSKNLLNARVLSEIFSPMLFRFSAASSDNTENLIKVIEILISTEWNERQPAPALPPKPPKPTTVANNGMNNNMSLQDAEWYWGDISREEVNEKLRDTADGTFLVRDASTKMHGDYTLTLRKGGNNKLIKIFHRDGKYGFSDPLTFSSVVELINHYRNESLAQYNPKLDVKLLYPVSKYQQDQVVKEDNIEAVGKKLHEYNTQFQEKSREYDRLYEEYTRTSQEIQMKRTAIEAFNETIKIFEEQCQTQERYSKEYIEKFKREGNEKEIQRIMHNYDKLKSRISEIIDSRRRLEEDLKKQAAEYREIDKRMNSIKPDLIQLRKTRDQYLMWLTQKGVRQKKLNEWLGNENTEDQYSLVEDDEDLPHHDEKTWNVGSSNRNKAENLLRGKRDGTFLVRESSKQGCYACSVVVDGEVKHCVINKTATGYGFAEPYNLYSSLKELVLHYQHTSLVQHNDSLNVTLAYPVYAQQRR

| Structure (SMILES) | Relative Selectivity versus PI3Kalpha |
| --- | --- |
| Cn1c(-c2ccc3[nH]ncc3c2)nc2c(O[C@H]3CCN(C(=O)OC(C)(C)C)C3)ncnc21 [Compound 1-29, tert-butyl (3S)-3-{[8-(1H-indazol-5-yl)-9-methyl-9H-purin-6-yl]oxy}pyrrolidine-1-carboxylate] | >10 |
| CCn1ncc(-c2nc3c(O[C@H]4CCNC4)ncnc3n2C)c1C [Compound 1-2, 8-(1-ethyl-5-methyl-1H-pyrazol-4-yl)-9-methyl-6-[(3S)-pyrrolidin-3-yloxy]-9H-purine] | >5 |
| CCn1ncc(-c2nc3c(OC4CCC(NC(=O)C5CCOCC5)C4)ncnc3n2C)c1C [Compound 9-3, cis-N-[(1S,3R)-3-{[8-(1-ethyl-5-methyl-1H-pyrazol-4-yl)-9-methyl-9H-purin-6-yl]oxy}cyclopentyl]tetrahydro-2H-pyran-4-carboxamide] | 8 |
| CCn1c(N(C)C(C)C)nc2c(O[C@H]3CCN(C(=O)OC(C)(C)C)C3)ncnc21 [Compound 13-7, tert-butyl (3S)-3-({9-ethyl-8-[methyl(1-methylethyl)amino]-9H-purin-6-yl}oxy)pyrrolidine-1-carboxylate] | >10 |
| CCn1ncc(-c2nc3c(O[C@H]4CCN(C(=O)c5c[nH]nn5)C4)ncnc3n2C)c1C [Compound 2-40, 8-(1-ethyl-5-methyl-1H-pyrazol-4-yl)-9-methyl-6-{[(3S)-1-(1H-1,2,3-triazol-4-ylcarbonyl)pyrrolidin-3-yl]oxy}-9H-purine] | 2 |
| CCn1ncc(-c2nc3c(O[C@H]4CCN(C(=O)c5nonc5C)C4)ncnc3n2C)c1C [Compound 2-35, 8-(1-ethyl-5-methyl-1H-pyrazol-4-yl)-9-methyl-6-({(3S)-1-[(4-methyl-1,2,5-oxadiazol-3-yl)carbonyl]pyrrolidin-3-yl}oxy)-9H-purine] | >10 |
| CCn1ncc(-c2nc3c(S[C@H]4CCN(C(=O)C5CC5)C4)ncnc3n2C)c1C [Compound 10-7, (S)-cyclopropyl(3-((8-(1-ethyl-5-methyl-1H-pyrazol-4-yl)-9-methyl-9H-purin-6-yl)thio)pyrrolidin-1-yl)methanone] | >10 |
| CCn1c(-c2cnc(C)nc2)nc2c(O[C@H]3CCCN(c4ccccn4)C3)ncnc21 [Compound 7-27, 9-ethyl-8-(2-methylpyrimidin-5-yl)-6-{[(3S)-1-pyridin-2-ylpiperidin-3-yl]oxy}-9H-purine] | >10 |
| CCn1c(-c2cnc(OC)c(F)c2)nc2c(O[C@H]3CCN(C(=O)C4CC(F)(F)C4)C3)ncnc21 [Compound 3-55, 6-({(3S)-1-[(3,3-difluorocyclobutyl)carbonyl]pyr-rolidin-3-yl}oxy)-9-ethyl-8-(5-fluoro-6-methoxypyridin-3-yl)-9H-purine] | >10 |
| CCn1c(-c2ccnc(OC)c2)nc2c(O[C@H]3CCN(C(=O)C4CC4)C3)ncnc21 [Compound 2-144, 6-{[(3S)-1-(cyclopropylcarbonyl)pyrrolidin-3-yl]oxy}-9-ethyl-8-(2-methoxypyridin-4-yl)-9H-purine] | >10 |
| CCn1ncc(-c2nc3c(CC4CCN(C(=O)OC(C)(C)C)C4)ncnc3n2C)c1C (stereo not drawn) [Compound 11-1, tert-butyl 3-((8-(1-ethyl-5-methyl-1H-pyrazol-4-yl)-9-methyl-9H-purin-6-yl)methyl)pyrrolidine-1-carboxylate] | >10 |
| CCC(=O)N[C@H]1CC[C@H](Oc2ncnc3c2nc(-c2cnc(C)nc2)n3CC)CC1 [Compound 9-7, N-(trans-4-{[9-ethyl-8-(2-methylpyrimidin-5-yl)-9H-purin-6-yl]oxy}cyclohexyl)propanamide] | >10 |
| CCc1nc(C)c(C(=O)N2CC[C@H](Oc3ncnc4c3nc(-c3cnn(CC)c3C)n4C)C2)o1 [Compound 2-86, 6-({(3S)-1-[(2-ethyl-4-methyl-1,3-oxazol-5-yl)carbonyl]pyrrolidin-3-yl}oxy)-8-(1-ethyl-5-methyl-1H-pyrazol-4-yl)-9-methyl-9H-purine] | >10 |
| CCC(=O)N1CC[C@H](Oc2ncnc3c2nc(-c2ccc4[nH]ncc4c2)n3C)C1 [Compound 3-5, (S)-1-(3-((8-(1H-indazol-5-yl)-9-methyl-9H-purin-6-yl)oxy)pyrrolidin-1-yl)propan-1-one] | >10 |
| CCn1ncc(-c2nc3c(O[C@H]4CCN(C(=O)c5cnoc5C)C4)ncnc3n2C)c1C [Compound 2-65, 8-(1-ethyl-5-methyl-1H-pyrazol-4-yl)-9-methyl-6-({(3S)-1-[(5-methylisoxazol-4-yl)carbonyl]pyrrolidin-3-yl}oxy)-9H-purine] | >10 |
| CCn1c(-c2cnc(C)nc2)nc2c(O[C@H]3CCN(C(=O)C4CC(C)C4)C3)ncnc21 (stereo partly drawn) [Compound 2-129, 9-ethyl-6-({(3S)-1-[(3-methylcyclobutyl)carbonyl]pyrrolidin-3-yl}oxy)-8-(2-methylpyrimidin-5-yl)-9H-purine] | >10 |
| CCn1c(-c2cnc(C)c(F)c2)nc2c(O[C@H]3CCN(C(=O)C4CC4)C3)ncnc21 [Compound 3-30, 6-{[(3S)-1-(cyclopropylcarbonyl)pyrrolidin-3-yl]oxy}-9-ethyl-8-(5-fluoro-6-methylpyridin-3-yl)-9H-purine] | >10 |
| CCC(=O)N1CCC(Oc2ncnc3c2nc(-c2cnn(CC)c2C)n3C)CC1 [Compound 2-14, 1-(4-((8-(1-ethyl-5-methyl-1H-pyrazol-4-yl)-9-methyl-9H-purin-6-yl)oxy)piperidin-1-yl)propan-1-one] | 1 |
| CCn1c(-c2cnc(C)nc2)nc2c(O[C@H]3CCN(c4ccccn4)C3)ncnc21 [Compound 7-17, 9-ethyl-8-(2-methylpyrimidin-5-yl)-6-{[(3S)-1-pyridin-2-ylpyrrolidin-3-yl]oxy}-9H-purine] | >10 |
| CCn1ncc(-c2nc3c(O[C@H]4CCN(C(=O)c5ccn[nH]5)C4)ncnc3n2C)c1C [Compound 2-33, 8-(1-ethyl-5-methyl-1H-pyrazol-4-yl)-9-methyl-6-{[(3S)-1-(1H-pyrazol-5-ylcarbonyl)pyrrolidin-3-yl]oxy}-9H-purine] | >10 |
| CCn1c(-c2cnc(C)nc2)nc2c(O[C@H]3CCN(C(=O)N4CC(O)C4)C3)ncnc21 [Compound 5-25, 1-{[(3S)-3-{[9-ethyl-8-(2-methylpyrimidin-5-yl)-9H-purin-6-yl]oxy}pyrrolidin-1-yl]carbonyl}azetidin-3-ol] | >10 |
| CCC(=O)N1CC[C@H](Oc2ncnc3c2nc(I)n3C)C1 [Compound 3-31, 8-iodo-9-methyl-6-{[(3S)-1-propanoylpyrrolidin-3-yl]oxy}-9H-purine] | >10 |
| CCn1c(-c2cnc(C)nc2)nc2c(OC3CN(C(=O)C4CC4)CC3F)ncnc21 (single isomer, unassigned) [Compound 2-138, 6-{[1-(cyclopropylcarbonyl)-(3S,4S)- or (3R,4R)-4-fluoropyrrolidin-3-yl]oxy}-9-ethyl-8-(2-methylpyrimidin-5-yl)-9H-purine] | >10 |
| CCC(=O)N1CC[C@H](Oc2ncnc3c2nc(C2CC2)n3C)C1 [Compound 14-2, 8-cyclopropyl-9-methyl-6-{[(3S)-1-propanoylpyrrolidin-3-yl]oxy}-9H-purine] | >10 |
